In patent US20220400676A1, “HERBICIDAL COMPOUNDS” (SYNGENTA CROP PROTECTION AG, priority 2019, published 2022):

Tests used:
AMARE = assay: Comparative Test (Post-Emergence), weed; assay type: in vivo, Amaranthus retoflexus
Protocol: (§1) Seeds of a variety of test species are sown in standard soil in pots Amaranthus retoflexus (AMARE), Echinochloa crus-galli (ECHCG), Setaria faberi (SETFA)). After cultivation for one day (pre-emergence) or after 8 days cultivation (post-emergence) under controlled conditions in a glasshouse (at 24/16° C., day/night; 14 hours light; 65% humidity), the plants are sprayed with an aqueous spray solution derived from the formulation of the technical active ingredient in acetone/water (50:50) solution containing 0.5% Tween 20 (polyoxyethelyene sorbitan monolaurate, CAS RN 9005-64-5). Compounds are applied at 250 g/ha unless otherwise stated. The test plants are then grown in a glasshouse under controlled conditions in a glasshouse (at 24/16° C., day/night; 14 hours light; 65% humidity) and watered twice daily. After 13 days for pre- and post-emergence, the test is evaluated for the percentage damage caused to the plant. The biological activities are shown in the following table on a five-point scale (5=81-100%; 4=61-80%; 3=41-60%; 2=21-40%; 1=0-20%).

ZEAMX = assay: Comparative Test (Post-Emergence), crop; assay type: in vivo, corn
[1] = tested on: Amaranthus retoflexus (AMARE); assay: Post-emergence herbicidal glasshouse test; assay type: in vivo; conditions: 250 g/ha, evaluated after 13 days
Protocol: as §1

[2] = tested on: Echinochloa crus-galli (ECHCG); assay: Post-emergence herbicidal glasshouse test; assay type: in vivo; conditions: 250 g/ha, evaluated after 13 days
Protocol: as §1

Setaria faberi (SETFA) [3] = assay: Post-emergence herbicidal glasshouse test; assay type: in vivo; conditions: 250 g/ha, evaluated after 13 days
Protocol: as §1

[4] = tested on: Amaranthus retoflexus (AMARE); assay: Pre-emergence herbicidal glasshouse test; assay type: in vivo; conditions: 250 g/ha, evaluated after 13 days
Protocol: as §1

[5] = tested on: Echinochloa crus-galli (ECHCG); assay: Pre-emergence herbicidal glasshouse test; assay type: in vivo; conditions: 250 g/ha, evaluated after 13 days
Protocol: as §1

Setaria faberi (SETFA) [6] = assay: Pre-emergence herbicidal glasshouse test; assay type: in vivo; conditions: 250 g/ha, evaluated after 13 days
Protocol: as §1

Compound | % Phytotoxicity AMARE (AMARE; rate 16 g/ha) [%] | % Phytotoxicity AMARE (AMARE; rate 63 g/ha) [%] | % Phytotoxicity AMARE (AMARE; rate 250 g/ha) [%] | % Phytotoxicity ZEAMX (ZEAMX; rate 16 g/ha) [%] | % Phytotoxicity ZEAMX (ZEAMX; rate 63 g/ha) [%] | % Phytotoxicity ZEAMX (ZEAMX; rate 250 g/ha) [%] | % Phytotoxicity AMARE (AMARE; rate 33 g/ha) [%] | % Phytotoxicity ZEAMX (ZEAMX; rate 33 g/ha) [%] | percentage damage caused to the plant, five-point scale, AMARE [1] | percentage damage caused to the plant, five-point scale, ECHCG [2] | percentage damage caused to the plant, five-point scale, SETFA (Setaria faberi (SETFA) [3]) | percentage damage caused to the plant, five-point scale, AMARE [4] | percentage damage caused to the plant, five-point scale, ECHCG [5] | percentage damage caused to the plant, five-point scale, SETFA (Setaria faberi (SETFA) [6])
COc1ccnc(Oc2cccc(F)c2-c2cc(C(F)F)no2)n1 | 0 | 10 | 20 | 0 | 10 | 20 |  |  |  |  |  |  |  | 
COc1cc(OC)nc(Oc2cccc(F)c2-c2cc(C(F)F)no2)n1 | 0 |  | 0 | 0 |  | 0 | 0 | 0 |  |  |  |  |  | 
CNc1ncnc(Oc2cccc(F)c2-c2cc(C(F)F)no2)c1Cl [Compound 2.002] |  |  |  |  |  |  |  |  | 2 (2=21-40%) | 1 (1=0-20%) | 1 (1=0-20%) | 2 (2=21-40%) | 1 (1=0-20%) | 1 (1=0-20%)
COc1cc(Oc2cccc(Br)c2-c2cc(C(F)F)no2)ncn1 [Compound 2.003] |  |  |  |  |  |  |  |  | 3 (3=41-60%) | 4 (4=61-80%) | 4 (4=61-80%) | 5 (5=81-100%) | 5 (5=81-100%) | 5 (5=81-100%)
COc1cc(Oc2cccc(Cl)c2-c2cc(C(F)F)no2)ncn1 [Compound 2.004] |  |  |  |  |  |  |  |  | 4 (4=61-80%) | 4 (4=61-80%) | 4 (4=61-80%) | 5 (5=81-100%) | 5 (5=81-100%) | 5 (5=81-100%)
CNc1cc(Oc2cccc(F)c2-c2cc(C(F)F)no2)ncn1 [Compound 2.005] |  |  |  |  |  |  |  |  | 2 (2=21-40%) | 2 (2=21-40%) | 2 (2=21-40%) | 2 (2=21-40%) | 2 (2=21-40%) | 2 (2=21-40%)
Cc1cc(Oc2cccc(Br)c2-c2cc(C(F)F)no2)ncn1 [Compound 2.006] |  |  |  |  |  |  |  |  | 1 (1=0-20%) | 3 (3=41-60%) | 3 (3=41-60%) | 2 (2=21-40%) | 5 (5=81-100%) | 4 (4=61-80%)
Cc1cc(Oc2cccc(Cl)c2-c2cc(C(F)F)no2)ncn1 [Compound 2.007] |  |  |  |  |  |  |  |  | 2 (2=21-40%) | 4 (4=61-80%) | 4 (4=61-80%) | 4 (4=61-80%) | 5 (5=81-100%) | 5 (5=81-100%)
Cc1ncnc(Oc2cccc(F)c2-c2cc(C(F)F)co2)c1F [Compound 2.008] |  |  |  |  |  |  |  |  | 3 (3=41-60%) | 1 (1=0-20%) | 1 (1=0-20%) | 4 (4=61-80%) | 4 (4=61-80%) | 4 (4=61-80%)
COc1cc(Oc2cccc(F)c2-c2cc(C(F)F)no2)ncn1 [Compound 2.017, 3-(difluoromethyl)-5-[2-fluoro-6-(6-methoxypyrimidin-4-yl)oxy-phenyl]isoxazole] |  |  |  |  |  |  |  |  | 4 (4=61-80%) | 4 (4=61-80%) | 4 (4=61-80%) | 5 (5=81-100%) | 5 (5=81-100%) | 5 (5=81-100%)
COc1cc(Oc2cccc(F)c2-c2cc(C(F)F)no2)ncn1 [drawing 58] | 60 | 60 | 80 | 0 | 10 | 10 |  |  |  |  |  |  |  | 
